{
  "source": "patent US7306789B2",
  "about": "“Method of stimulating hair growth using benzopyrans” (Warner-Lambert Company, LLC, priority 2002, dated 2007)",
  "key": {"Female C3H/HeN mice": {"test_system": "Female C3H/HeN mice", "assay": "Mouse hair growth model (topical administration)", "assay_type": "in vivo", "settings": "for Day on which 50% incidence of hair growth occurred: topical", "protocol": "The effect of the benzopyran compound (3S,4R)-3,4-dihydro-4-(2,3-dihydro-2-methyl-3-oxopyridazin-6-yl)oxy-3-hydroxy-6-(3-hydroxyphenyl)sulphonyl-2,2,3-trimethyl-2H-benzo[b]pyran (Compound 1) on hair growth was evaluated by topical administration of the compound to mice. Compound 1 may be made according to the methods described in U.S. Pat. Nos. 5,912,244 and 6,071,938.\nFemale C3H/HeN mice, 42-46 days old (Charles River Laboratories, Raleigh, N.C.) were used for the study. The hair follicles of mice at this age are in the second telogen phase, which usually lasts from 6 to 9 weeks, providing a wide enough window to test compounds for their ability to induce earlier onset of anagen. Only mice with pink skin, a visual indication of the telogen phase, were selected for inclusion in the study.\nTest compounds, including Compound 1, the potassium channel opener minoxidil (marketed as Rogaine® containing 2% minoxidil), and cyclosporin A, were dissolved in a vehicle consisting of propylene glycol (30%) and ethanol (70%). A test compound dissolved in vehicle, or a vehicle control (30/70 propylene glycol/ethanol, unless otherwise specified) was applied topically to the clipped dorsal region of the mice in each test group (7-10 mice) in a volume of 20 μl/cm^2. Treatments were applied once or twice daily, 5 days/week.\nThe treatment area was observed and graded for signs of hair growth and local skin irritation. The hair growth response was quantified by recording, for each animal, the day on which signs of hair growth first appeared over the treated area. The first sign of anagen was the darkening of skin color as melanocytes in the follicles started to synthesize melanin in preparation for the production of pigmented hairs. The response time was measured as the number of days following initiation of treatment when hair growth was present in 50% of the mice in a given group."}, "[1]": {"assay": "In vitro metabolism experiments (conjugation)", "assay_type": "in vitro ADME", "description": "(§1) The compound is cleared by conjugation to produce the glucuronide and sulfate metabolites. The compound and its metabolites are rapidly taken up by the liver and excreted in the bile. Thus, following topical administration, any absorbed benzopyran is subject to high hepatic extraction, and thus low systemic exposure."}, "In vivo clearance in rat": {"assay": "In vivo clearance in rat", "settings": "low exposure to unchanged drug following oral or systemic administration", "description": "as §1"}, "In vivo clearance in dog": {"assay": "In vivo clearance in dog", "settings": "low exposure to unchanged drug following oral or systemic administration", "description": "as §1"}, "[2]": {"assay": "In vivo clearance in human", "settings": "low exposure to unchanged drug following oral or systemic administration", "description": "as §1"}},
  "data": [
    {"smiles": "Cn1nc(O[C@@H]2c3cc(S(=O)(=O)c4cccc(O)c4)ccc3OC(C)(C)[C@@]2(C)O)ccc1=O", "note": "[Compound 1, (3S,4R)-3,4-dihydro-4-(2,3-dihydro-2-methyl-3-oxopyridazin-6-yl)oxy-3-hydroxy-6-(3-hydroxyphenyl)sulphonyl-2,2,3-trimethyl-2H-benzo[b]pyran]", "values": [
      {"measurement": "Quality of hair growth over the treated area", "setting": "Female C3H/HeN mice; all cases of hair growth stimulation", "result": "full and thick hair growth"},
      {"measurement": "Hair growth stimulation", "setting": "Female C3H/HeN mice; applied topically at 0.3% or 1% once or twice daily for five days or up to 4 weeks", "result": "stimulated hair growth"},
      {"measurement": "Efficacy relative to lower doses", "setting": "Female C3H/HeN mice; concentrations greater than 1%", "result": "less efficacious than lower doses"},
      {"measurement": "Behaviour of drug on the skin", "setting": "Female C3H/HeN mice; concentrations greater than 1%, vehicle propylene glycol/ethanol", "result": "precipitation of drug on the skin"},
      {"measurement": "Hair growth", "setting": "Female C3H/HeN mice; concentrations lower than 0.3% (0.1% to 0.03%)", "result": "not observed"},
      {"measurement": "Local irritation or other adverse effects", "setting": "Female C3H/HeN mice; mice treated for 2 weeks with 5%", "result": "No local irritation or other adverse effects"},
      {"measurement": "Day on which 50% incidence of hair growth occurred", "setting": "Female C3H/HeN mice; dose 0.03%, 1 dose/day, duration 1 week, study 5 (vehicle >35)", "result": ">35", "unit": "days"},
      {"measurement": "Day on which 50% incidence of hair growth occurred", "setting": "Female C3H/HeN mice; dose 0.03%, 1 dose/day, duration 1 week, study 6 (vehicle >35)", "result": ">35", "unit": "days"},
      {"measurement": "Day on which 50% incidence of hair growth occurred", "setting": "Female C3H/HeN mice; dose 0.03%, 1 dose/day, duration 1 week, study 7 (vehicle >35)", "result": ">35", "unit": "days"},
      {"measurement": "Day on which 50% incidence of hair growth occurred", "setting": "Female C3H/HeN mice; dose 0.03%, 1 dose/day, duration 1 week, study 9 (vehicle >35)", "result": ">35", "unit": "days"},
      {"measurement": "Day on which 50% incidence of hair growth occurred", "setting": "Female C3H/HeN mice; dose 0.1%, 1 dose/day, duration 1 week, study 5 (vehicle >35)", "result": ">35", "unit": "days"},
      {"measurement": "Day on which 50% incidence of hair growth occurred", "setting": "Female C3H/HeN mice; dose 0.1%, 1 dose/day, duration 1 week, study 6 (vehicle >35)", "result": ">35", "unit": "days"},
      {"measurement": "Day on which 50% incidence of hair growth occurred", "setting": "Female C3H/HeN mice; dose 0.3%, 1 dose/day, duration 1 week, study 4 (vehicle 25)", "result": 11, "unit": "days"},
      {"measurement": "Day on which 50% incidence of hair growth occurred", "setting": "Female C3H/HeN mice; dose 0.3%, 1 dose/day, duration 1 week, study 5 (vehicle >35)", "result": ">35", "unit": "days"},
      {"measurement": "Day on which 50% incidence of hair growth occurred", "setting": "Female C3H/HeN mice; dose 0.3%, 1 dose/day, duration 1 week, study 6 (vehicle >35)", "result": ">35", "unit": "days"},
      {"measurement": "Day on which 50% incidence of hair growth occurred", "setting": "Female C3H/HeN mice; dose 0.3%, 1 dose/day, duration 1 week, study 7 (vehicle >35)", "result": 14, "unit": "days"},
      {"measurement": "Day on which 50% incidence of hair growth occurred", "setting": "Female C3H/HeN mice; dose 0.3%, 1 dose/day, duration 1 week, study 9 (vehicle >35)", "result": 16, "unit": "days"},
      {"measurement": "Day on which 50% incidence of hair growth occurred", "setting": "Female C3H/HeN mice; dose 0.3%, 1 dose/day, duration 1 week, study 10 (vehicle >35)", "result": 21, "unit": "days"},
      {"measurement": "Day on which 50% incidence of hair growth occurred", "setting": "Female C3H/HeN mice; dose 0.3%, 1 dose/day, duration 1 week, study 11 (vehicle 56)", "result": 25, "unit": "days"},
      {"measurement": "Day on which 50% incidence of hair growth occurred", "setting": "Female C3H/HeN mice; dose 0.3%, 1 dose/day, duration 1 week, study 12 (vehicle >35)", "result": ">35", "unit": "days"},
      {"measurement": "Day on which 50% incidence of hair growth occurred", "setting": "Female C3H/HeN mice; dose 0.3%, 1 dose/day, duration 1 week, study 13 (vehicle 56)", "result": 28, "unit": "days"},
      {"measurement": "Day on which 50% incidence of hair growth occurred", "setting": "Female C3H/HeN mice; dose 0.3%, 1 dose/day, duration 4 weeks, study 10 (vehicle >35)", "result": 23, "unit": "days"},
      {"measurement": "Day on which 50% incidence of hair growth occurred", "setting": "Female C3H/HeN mice; dose 0.3%, 1 dose/day, duration 4 weeks, study 12 (vehicle >35)", "result": 16, "unit": "days"},
      {"measurement": "Day on which 50% incidence of hair growth occurred", "setting": "Female C3H/HeN mice; dose 0.3%, 1 dose/day, duration 4 weeks, study 13 (vehicle 56)", "result": 35, "unit": "days"},
      {"measurement": "Day on which 50% incidence of hair growth occurred", "setting": "Female C3H/HeN mice; dose 1%, 1 dose/day, duration 1 week, study 3 (vehicle 21)", "result": 14, "unit": "days"},
      {"measurement": "Day on which 50% incidence of hair growth occurred", "setting": "Female C3H/HeN mice; dose 1%, 1 dose/day, duration 1 week, study 4 (vehicle 25)", "result": 11, "unit": "days"},
      {"measurement": "Day on which 50% incidence of hair growth occurred", "setting": "Female C3H/HeN mice; dose 1%, 1 dose/day, duration 1 week, study 5 (vehicle >35)", "result": ">35", "unit": "days"},
      {"measurement": "Day on which 50% incidence of hair growth occurred", "setting": "Female C3H/HeN mice; dose 1%, 1 dose/day, duration 1 week, study 8 (vehicle >35)", "result": 21, "unit": "days"},
      {"measurement": "Day on which 50% incidence of hair growth occurred", "setting": "Female C3H/HeN mice; dose 1%, 1 dose/day, duration 1 week, study 9 (vehicle >35)", "result": 28, "unit": "days"},
      {"measurement": "Day on which 50% incidence of hair growth occurred", "setting": "Female C3H/HeN mice; dose 1%, 1 dose/day, duration 1 week, study 10 (vehicle >35)", "result": ">35", "unit": "days"},
      {"measurement": "Day on which 50% incidence of hair growth occurred", "setting": "Female C3H/HeN mice; dose 1%, 1 dose/day, duration 1 week, study 12 (vehicle >35)", "result": 16, "unit": "days"},
      {"measurement": "Day on which 50% incidence of hair growth occurred", "setting": "Female C3H/HeN mice; dose 1%, 1 dose/day, duration 4 weeks, study 10 (vehicle >35)", "result": ">35", "unit": "days"},
      {"measurement": "Day on which 50% incidence of hair growth occurred", "setting": "Female C3H/HeN mice; dose 1%, 1 dose/day, duration 4 weeks, study 12 (vehicle >35)", "result": 18, "unit": "days"},
      {"measurement": "Day on which 50% incidence of hair growth occurred", "setting": "Female C3H/HeN mice; dose 1%, 2 doses/day, duration 2 weeks, study 1 (vehicle >35)", "result": 25, "unit": "days"},
      {"measurement": "Day on which 50% incidence of hair growth occurred", "setting": "Female C3H/HeN mice; dose 1%, 2 doses/day, duration 2 weeks, study 2 (vehicle >35)", "result": 28, "unit": "days"},
      {"measurement": "Rate of conjugation", "setting": "[1]", "result": "high"},
      {"measurement": "Clearance", "setting": "In vivo clearance in rat", "result": "rapid clearance"},
      {"measurement": "Clearance", "setting": "In vivo clearance in dog", "result": "rapid clearance"},
      {"measurement": "Clearance", "setting": "[2]", "result": "rapid clearance"}
    ]},
    {"smiles": "Nc1cc(N2CCCCC2)nc(N)[n+]1[O-]", "note": "[Minoxidil, minoxidil, reference compound]", "values": [
      {"measurement": "Day on which 50% incidence of hair growth occurred", "setting": "Female C3H/HeN mice; dose 2.5%, 1 dose/day, duration 1 week, study 13 (vehicle 56)", "result": 53, "unit": "days"},
      {"measurement": "Day on which 50% incidence of hair growth occurred", "setting": "Female C3H/HeN mice; dose 2.5%, 1 dose/day, duration 4 weeks, study 13 (vehicle 58)", "result": 39, "unit": "days"},
      {"measurement": "Day on which 50% incidence of hair growth occurred", "setting": "Female C3H/HeN mice; dose 5%, 1 dose/day, duration 1 week, study 13 (vehicle 56)", "result": 56, "unit": "days"},
      {"measurement": "Day on which 50% incidence of hair growth occurred", "setting": "Female C3H/HeN mice; dose 5%, 1 dose/day, duration 4 weeks, study 13 (vehicle 58)", "result": 37, "unit": "days"}
    ]}
  ]
}
